The results in this text go back to patent US12427210B2, “Compounds comprising a fibroblast activation protein ligand and use thereof” (priority 2019, dated 2025).

The test system of data set [1] is serine protease NS3 (a.a. 3-181) from Hepatitis C virus genotype 1b (mutant R155Q).
The target of a further data set is beta 1 (h) (Homo sapiens, UniProt P08588). Briefly: biochemical. Conditions: read-out: % Inhibition of Specific Binding.
The target of the next data set is ETA (h) (Homo sapiens, UniProt P25101). Briefly: biochemical. The note with it: read-out: % Inhibition of Specific Binding.
The next data set deals with M3 (h) (Homo sapiens, UniProt P20309). Description: biochemical. Conditions: read-out: % Inhibition of Specific Binding.
In another data set the target is mu (MOP) (h) (Homo sapiens, UniProt P35372). Description: biochemical. The note with it: read-out: % Inhibition of Specific Binding.
The next data set concerns the target 5-HT1B (h) (Homo sapiens, UniProt P28222). Description: biochemical. The note with it: read-out: % Inhibition of Specific Binding.
In the next data set the target is PDE3A (h) (Homo sapiens, UniProt Q14432). Briefly: biochemical. The note with it: read-out: % Inhibition of Specific Binding.
The target of the next data set is Beta secretase (Homo sapiens, UniProt P56817). Briefly: biochemical. Conditions: read-out: Percentage inhibition (%).
In a further data set the target is T1, Caspase-3 (Homo sapiens, UniProt P42574).
T1 sequence (P42574 29-175 limits assumed): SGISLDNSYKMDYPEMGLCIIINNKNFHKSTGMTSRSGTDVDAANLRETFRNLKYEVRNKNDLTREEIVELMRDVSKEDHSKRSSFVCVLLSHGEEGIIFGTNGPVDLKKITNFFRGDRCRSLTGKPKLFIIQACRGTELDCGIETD
T1 sequence (P42574 176-277 limits assumed): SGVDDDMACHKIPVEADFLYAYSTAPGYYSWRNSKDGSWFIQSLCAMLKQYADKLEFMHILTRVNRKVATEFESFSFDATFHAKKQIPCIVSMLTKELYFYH
Description: biochemical. The note with it: read-out: Percentage inhibition (%).

For data set [2], the target named is T2, Ubiquitin carboxyl-terminal hydrolase 8 (Homo sapiens, UniProt P40818).
T2 sequence (P40818 1-1118): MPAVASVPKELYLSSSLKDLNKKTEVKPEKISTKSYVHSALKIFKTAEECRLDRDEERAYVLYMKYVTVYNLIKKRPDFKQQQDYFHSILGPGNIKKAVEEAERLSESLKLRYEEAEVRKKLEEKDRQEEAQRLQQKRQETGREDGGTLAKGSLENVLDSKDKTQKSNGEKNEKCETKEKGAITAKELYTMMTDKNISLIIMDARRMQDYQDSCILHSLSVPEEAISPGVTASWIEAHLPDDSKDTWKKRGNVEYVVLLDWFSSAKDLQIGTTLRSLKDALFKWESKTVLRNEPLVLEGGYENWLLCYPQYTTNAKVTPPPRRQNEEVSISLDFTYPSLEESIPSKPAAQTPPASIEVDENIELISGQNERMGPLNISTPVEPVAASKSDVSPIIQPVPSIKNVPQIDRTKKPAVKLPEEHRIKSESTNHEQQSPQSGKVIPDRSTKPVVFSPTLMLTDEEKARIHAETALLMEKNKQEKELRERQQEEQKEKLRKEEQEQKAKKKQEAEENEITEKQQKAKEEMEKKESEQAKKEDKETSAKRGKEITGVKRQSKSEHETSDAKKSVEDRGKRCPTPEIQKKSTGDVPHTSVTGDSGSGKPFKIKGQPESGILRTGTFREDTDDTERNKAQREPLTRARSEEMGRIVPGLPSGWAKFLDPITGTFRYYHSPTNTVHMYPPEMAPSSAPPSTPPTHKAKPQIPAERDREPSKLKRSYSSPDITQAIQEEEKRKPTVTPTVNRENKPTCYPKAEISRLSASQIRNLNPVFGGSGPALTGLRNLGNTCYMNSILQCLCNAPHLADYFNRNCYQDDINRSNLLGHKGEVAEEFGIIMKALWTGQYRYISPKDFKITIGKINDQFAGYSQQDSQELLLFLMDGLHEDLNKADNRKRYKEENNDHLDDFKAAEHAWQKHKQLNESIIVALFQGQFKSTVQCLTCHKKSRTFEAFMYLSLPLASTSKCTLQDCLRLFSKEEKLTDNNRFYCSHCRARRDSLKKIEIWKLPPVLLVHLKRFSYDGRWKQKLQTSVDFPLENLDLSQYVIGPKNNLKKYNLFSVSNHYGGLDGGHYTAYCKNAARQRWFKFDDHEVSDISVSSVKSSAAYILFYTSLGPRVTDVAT
Description: biochemical. The note with it: read-out: Percentage inhibition (%).

A short description of a further data set: in vivo. Conditions: mouse, iv; for clearance: in vivo; for AUC(0-inf) / C0 / half-life / Vd: plasma; for Vd: mouse plasma.
Another data set concerns the target DPP3 (Homo sapiens, UniProt Q9NY33). Briefly: biochemical. The note with it: read-out: Percentage inhibition (%).

Read-outs that look alike come from different tables or passages of the source. Numbered stars: 1 amine (or outer) side, 2 acyl side, 3 side chain; on linkers, the order of the positions; unused ones are H or OH. Bridge positions count the residues as written; N and C are the ends. Peptide text beside a SMILES is read from it. * marks the point of attachment. X1 = O=C(O)CN1CCN(CC(=O)O)CCN(CC(=O)N2CCN(Cc3cc(C[*:1])cc(C[*:2])c3)CC2)CCN(CC(=O)O)CC1; Hexanoyl = CCCCCC(=O)*

Chain of Beta secretase (P56817 46-501): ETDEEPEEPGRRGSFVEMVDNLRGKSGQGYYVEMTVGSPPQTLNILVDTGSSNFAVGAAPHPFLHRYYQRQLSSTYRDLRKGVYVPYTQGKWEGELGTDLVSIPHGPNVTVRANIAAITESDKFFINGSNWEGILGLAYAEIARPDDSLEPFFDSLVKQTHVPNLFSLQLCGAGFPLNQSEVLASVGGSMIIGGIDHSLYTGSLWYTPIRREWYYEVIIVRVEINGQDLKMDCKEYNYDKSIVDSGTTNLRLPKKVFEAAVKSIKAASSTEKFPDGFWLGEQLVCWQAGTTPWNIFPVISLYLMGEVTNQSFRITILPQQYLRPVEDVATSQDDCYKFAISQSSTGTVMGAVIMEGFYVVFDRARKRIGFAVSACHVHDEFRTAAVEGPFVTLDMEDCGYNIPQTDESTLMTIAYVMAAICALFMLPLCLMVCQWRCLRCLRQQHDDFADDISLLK
Chain of mu (MOP) (h) (P35372 whole entry): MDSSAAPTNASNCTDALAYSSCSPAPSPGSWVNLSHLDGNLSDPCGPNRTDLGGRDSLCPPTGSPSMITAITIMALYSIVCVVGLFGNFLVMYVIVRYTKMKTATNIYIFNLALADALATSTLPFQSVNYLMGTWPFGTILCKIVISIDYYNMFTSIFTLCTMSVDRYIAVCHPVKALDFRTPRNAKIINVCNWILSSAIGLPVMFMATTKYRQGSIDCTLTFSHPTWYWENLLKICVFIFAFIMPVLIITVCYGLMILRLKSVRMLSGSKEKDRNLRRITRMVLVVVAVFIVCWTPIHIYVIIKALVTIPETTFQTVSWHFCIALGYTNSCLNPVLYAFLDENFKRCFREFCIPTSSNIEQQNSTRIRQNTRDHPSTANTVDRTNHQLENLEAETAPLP
Chain of M3 (h) (P20309 whole entry): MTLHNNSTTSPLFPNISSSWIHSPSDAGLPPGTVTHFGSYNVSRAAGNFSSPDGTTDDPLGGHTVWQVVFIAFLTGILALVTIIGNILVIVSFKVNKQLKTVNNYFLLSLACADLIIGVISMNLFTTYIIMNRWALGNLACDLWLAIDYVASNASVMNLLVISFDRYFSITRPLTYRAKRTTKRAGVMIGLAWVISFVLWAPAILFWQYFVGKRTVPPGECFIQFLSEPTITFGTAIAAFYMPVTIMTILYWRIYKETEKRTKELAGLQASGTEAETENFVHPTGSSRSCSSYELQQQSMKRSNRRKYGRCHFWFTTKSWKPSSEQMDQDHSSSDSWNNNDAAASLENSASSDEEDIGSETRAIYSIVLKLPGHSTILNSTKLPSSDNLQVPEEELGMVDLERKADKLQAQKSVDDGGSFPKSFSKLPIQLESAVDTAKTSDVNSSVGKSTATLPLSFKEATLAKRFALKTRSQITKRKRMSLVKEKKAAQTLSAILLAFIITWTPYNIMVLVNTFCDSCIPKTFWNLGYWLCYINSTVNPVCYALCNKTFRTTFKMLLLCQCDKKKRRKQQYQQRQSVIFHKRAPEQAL
Chain of ETA (h) (P25101 21-427): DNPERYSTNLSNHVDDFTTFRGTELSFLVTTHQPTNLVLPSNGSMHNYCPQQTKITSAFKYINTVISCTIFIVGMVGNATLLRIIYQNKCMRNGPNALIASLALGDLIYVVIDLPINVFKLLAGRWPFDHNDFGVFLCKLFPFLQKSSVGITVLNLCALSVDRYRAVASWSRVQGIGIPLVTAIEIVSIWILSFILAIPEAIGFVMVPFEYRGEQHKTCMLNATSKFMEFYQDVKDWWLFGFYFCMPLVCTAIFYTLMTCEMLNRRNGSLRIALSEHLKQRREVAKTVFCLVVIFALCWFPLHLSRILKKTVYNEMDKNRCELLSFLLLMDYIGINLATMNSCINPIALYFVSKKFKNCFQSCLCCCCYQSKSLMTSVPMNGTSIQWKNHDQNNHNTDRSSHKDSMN
Chain of DPP3 (Q9NY33 whole entry, species assumed): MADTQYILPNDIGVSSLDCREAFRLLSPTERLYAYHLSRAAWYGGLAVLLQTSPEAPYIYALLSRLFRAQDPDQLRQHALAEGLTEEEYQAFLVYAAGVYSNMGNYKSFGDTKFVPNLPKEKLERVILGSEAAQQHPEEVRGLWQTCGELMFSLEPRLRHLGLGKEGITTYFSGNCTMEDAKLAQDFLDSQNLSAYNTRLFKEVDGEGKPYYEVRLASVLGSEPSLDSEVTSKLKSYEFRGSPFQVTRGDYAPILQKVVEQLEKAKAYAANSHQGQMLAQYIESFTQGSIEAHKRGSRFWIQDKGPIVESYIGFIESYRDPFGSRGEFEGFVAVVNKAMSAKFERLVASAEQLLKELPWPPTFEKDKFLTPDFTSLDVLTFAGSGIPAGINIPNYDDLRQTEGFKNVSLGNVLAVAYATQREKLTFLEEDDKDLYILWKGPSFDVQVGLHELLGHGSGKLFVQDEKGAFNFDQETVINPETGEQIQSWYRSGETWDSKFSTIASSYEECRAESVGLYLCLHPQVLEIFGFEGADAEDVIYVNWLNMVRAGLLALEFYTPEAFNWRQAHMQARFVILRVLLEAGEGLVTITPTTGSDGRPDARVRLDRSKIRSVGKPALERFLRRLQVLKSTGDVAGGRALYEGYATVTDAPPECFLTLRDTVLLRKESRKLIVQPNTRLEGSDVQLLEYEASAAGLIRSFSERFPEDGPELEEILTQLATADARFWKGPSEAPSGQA
Chain of PDE3A (h) (Q14432 whole entry): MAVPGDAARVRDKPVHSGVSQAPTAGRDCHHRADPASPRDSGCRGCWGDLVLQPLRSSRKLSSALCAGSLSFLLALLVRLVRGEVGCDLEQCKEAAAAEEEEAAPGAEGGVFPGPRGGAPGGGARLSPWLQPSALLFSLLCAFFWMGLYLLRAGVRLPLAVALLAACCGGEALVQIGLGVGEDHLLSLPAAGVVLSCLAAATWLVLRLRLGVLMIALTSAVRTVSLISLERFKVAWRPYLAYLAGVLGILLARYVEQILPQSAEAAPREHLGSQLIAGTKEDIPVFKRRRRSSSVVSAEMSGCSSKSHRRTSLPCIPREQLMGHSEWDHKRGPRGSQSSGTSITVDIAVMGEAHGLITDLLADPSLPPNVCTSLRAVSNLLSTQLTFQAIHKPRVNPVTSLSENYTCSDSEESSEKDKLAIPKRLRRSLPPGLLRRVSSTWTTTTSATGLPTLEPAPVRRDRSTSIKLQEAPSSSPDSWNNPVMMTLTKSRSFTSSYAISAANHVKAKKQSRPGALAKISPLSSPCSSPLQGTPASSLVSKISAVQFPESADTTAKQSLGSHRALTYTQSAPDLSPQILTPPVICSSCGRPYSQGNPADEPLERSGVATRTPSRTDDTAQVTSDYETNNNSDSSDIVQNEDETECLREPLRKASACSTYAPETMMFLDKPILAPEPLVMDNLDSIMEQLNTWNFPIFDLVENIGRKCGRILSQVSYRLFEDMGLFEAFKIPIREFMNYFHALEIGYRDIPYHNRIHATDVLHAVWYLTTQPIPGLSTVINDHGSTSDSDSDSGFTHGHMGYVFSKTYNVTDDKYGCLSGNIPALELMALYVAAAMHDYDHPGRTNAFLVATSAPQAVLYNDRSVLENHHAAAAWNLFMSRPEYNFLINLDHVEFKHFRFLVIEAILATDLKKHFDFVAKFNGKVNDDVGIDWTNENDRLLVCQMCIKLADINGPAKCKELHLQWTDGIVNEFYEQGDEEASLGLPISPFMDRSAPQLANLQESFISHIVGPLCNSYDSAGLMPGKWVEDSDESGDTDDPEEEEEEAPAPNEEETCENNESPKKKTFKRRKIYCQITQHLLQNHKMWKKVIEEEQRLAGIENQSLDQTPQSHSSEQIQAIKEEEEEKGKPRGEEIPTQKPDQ
Chain of beta 1 (h) (P08588 whole entry): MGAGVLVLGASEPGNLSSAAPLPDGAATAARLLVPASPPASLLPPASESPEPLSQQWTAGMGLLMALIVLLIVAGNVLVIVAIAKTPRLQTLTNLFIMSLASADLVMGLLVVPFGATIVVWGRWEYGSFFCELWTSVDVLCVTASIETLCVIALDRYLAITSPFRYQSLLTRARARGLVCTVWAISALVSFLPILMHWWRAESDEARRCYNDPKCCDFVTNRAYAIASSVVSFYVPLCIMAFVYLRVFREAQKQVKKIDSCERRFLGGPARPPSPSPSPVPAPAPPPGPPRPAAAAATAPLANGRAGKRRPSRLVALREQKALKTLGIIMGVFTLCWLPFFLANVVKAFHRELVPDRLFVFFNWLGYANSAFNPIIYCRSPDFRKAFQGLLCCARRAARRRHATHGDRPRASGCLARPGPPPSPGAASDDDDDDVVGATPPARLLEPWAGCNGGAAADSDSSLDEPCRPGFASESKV
Chain of 5-HT1B (h) (P28222 whole entry): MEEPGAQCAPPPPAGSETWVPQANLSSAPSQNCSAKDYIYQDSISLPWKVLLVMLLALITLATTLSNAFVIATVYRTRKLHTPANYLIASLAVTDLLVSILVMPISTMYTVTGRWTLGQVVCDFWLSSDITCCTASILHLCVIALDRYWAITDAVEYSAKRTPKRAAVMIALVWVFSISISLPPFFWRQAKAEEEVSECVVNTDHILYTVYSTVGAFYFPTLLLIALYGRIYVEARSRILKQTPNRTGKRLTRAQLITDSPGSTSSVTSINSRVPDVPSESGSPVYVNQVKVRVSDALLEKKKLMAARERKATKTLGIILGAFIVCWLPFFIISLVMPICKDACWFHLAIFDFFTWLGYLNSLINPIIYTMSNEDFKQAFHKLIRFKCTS

For `CCCCCC(=O)N[C@H]1CSCc2cc(cc(CN3CCN(C(=O)CN4CCN(CC(=O)O)CCN(CC(=O)O)CCN(CC(=O)O)CC4)CC3)c2)CSC[C@@H](C(=O)N[C@@H](CC(=O)O)C(N)=O)NC(=O)[C@H](Cc2ccccc2)NC(=O)[C@H](CCC(N)=O)NC(=O)[C@H]([C@@H](C)O)NC(=O)[C@@H]2CCCN2C(=O)[C@@H]2CCCN2C1=O` [Compound 3BP-3407, Hex-[Cys(tMeBn(DOTA-PP))-Pro-Pro-Thr-Gln-Phe-Cys]-Asp-NH2] (Hexanoyl-CPPTQFCD-NH2; linker 1-7 via X1), the entries for the “Percentage inhibition (%)” value in data set [1] (1 μM) and in data set [1] (10 μM) were 0% and 2%, respectively. Besides, the inhibition at 10 µM was 4% at beta 1 (h); -18% on ETA (h); 10% on M3 (h); 2% at mu (MOP) (h); -11% on 5-HT1B (h); -3% at PDE3A (h). Besides, the inhibition at 10 µM was -5% at Beta secretase, -2% at Caspase-3 and 6% in data set [2]. Besides, the inhibition at 1 µM was -8% at Beta secretase, 1% at Caspase-3 and -3% in data set [2].
For the compound `CCCCCC(=O)N[C@H]1CSCc2cc(CSCCNC(=O)CN3CCN(CC(=O)O)CCN(CC(=O)O)CCN(CC(=O)O)CC3)cc(c2)CSC[C@@H](C(=O)O)NC(=O)[C@H](Cc2ccccc2)NC(=O)[C@H](CCC(N)=O)NC(=O)[C@H]([C@@H](C)O)NC(=O)[C@@H]2CCCN2C(=O)[C@@H]2CCCN2C1=O` [Compound 3BP-3554, Hex-[Cys(tMeBn(DOTA-AET))-Pro-Pro-Thr-Gln-Phe-Cys]-OH], the “Percentage inhibition (%)” value in [1] (1 μM) is 0%; in [1] (10 μM), −5%. For the same compound, the clearance in the data set “in vivo” (4 nmol/kg) is 8.03 mL/min/kg; in the data set “in vivo” (40 nmol/kg), 11.8 mL/min/kg; in “in vivo” (400 nmol/kg) it was 8.03 mL/min/kg. Moreover, the AUC(0-inf) is 0.0083 µM·h in “in vivo” (4 nmol/kg), 0.056 µM·h in the data set “in vivo” (40 nmol/kg) and 0.961 µM·h in “in vivo” (400 nmol/kg). For the same compound, the C0 in the data set “in vivo” (4 nmol/kg) is 25.6 nM; in “in vivo” (40 nmol/kg), 177 nM; in the data set “in vivo” (400 nmol/kg), 4970 nM. The figures for the half-life in the data set “in vivo” (4 nmol/kg), in the data set “in vivo” (40 nmol/kg) and in “in vivo” (400 nmol/kg) were 23 min, 59 min and 40 min, respectively. Also, the Vd in “in vivo” (4 nmol/kg, Vss, intravenous 4 nmol/kg) was found to be 0.21 L/kg; in “in vivo” (4 nmol/kg, Vz, intravenous 4 nmol/kg) it was 0.26 L/kg; in “in vivo” (40 nmol/kg, Vss, intravenous 40 nmol/kg), 0.32 L/kg; in “in vivo” (40 nmol/kg, Vz, intravenous 40 nmol/kg), 1.02 L/kg; in “in vivo” (400 nmol/kg, Vss, intravenous 400 nmol/kg) it was 0.1 L/kg; in “in vivo” (400 nmol/kg, Vz, intravenous 400 nmol/kg), 0.21 L/kg. Moreover, the inhibition at 10 µM was -13% at beta 1 (h); 6% at ETA (h); 1% at M3 (h); -10% on mu (MOP) (h); 8% at 5-HT1B (h); -37% at PDE3A (h). Besides, the inhibition at 10 µM at Beta secretase is 7%; on Caspase-3, -1%; in data set [2] it was 1%; at DPP3, -1%. The inhibition at 1 µM is 1% on Beta secretase, -2% at Caspase-3, 2% in [2] and 2% on DPP3.

Broadly, the inhibition is the drop in the measured response relative to a control, in per cent. Usually clearance stands for a measure of how efficiently the substance is removed, as volume per time. High values mean a high capacity for elimination, low ones a low capacity for elimination. The term AUC(0-inf) denotes total exposure, with the tail of the curve extrapolated. High values mean high exposure, low ones low exposure. For orientation: half-life means the time needed for the level to fall by half in the phase considered. Lower therefore signals fast loss. By Vd is commonly meant the apparent volume that relates the amount in the body to the concentration in plasma or blood. High values mean extensive tissue distribution, low ones confinement near the circulation.
